Reference: paper PMC8379256, “A xanthene derivative, DS20060511, attenuates glucose intolerance by inducing skeletal muscle-specific GLUT4 translocation in mice” (Communications Biology, 2021)
“And” between values parts separate entries of the source, which are not always exact repeats. Equal values may be shown once.

Tested on: C57BL/6 mice
Experiment: Indirect calorimetry and exercise endurance under stepwise treadmill running
Assay type: in vivo, mouse
Details: 30 mg/kg; for O2 Consumption (VO2) / Respiratory quotient / CO2 Production (VCO2): DS20060511 30 mg/kg, individual mice 1-7, Fig. 5a
Protocol: The mice were acclimatized to the treadmill by allowing them to run at 10 m min^−1 for 10 min on the day before the test. On the day of the test, the mice received oral administration of 30 mg kg^−1 of DS20060511 or vehicle 15 min before they were made to run. The treadmill was started at a velocity of 10 m min^−1, with the speed increased stepwise by 2 m min^−1 every 3 min, to assess the exercise endurance capacity as described previously. Measurements of the oxygen consumption (VO2) and exhaled carbon dioxide (VCO2) under treadmill running were conducted with the ARCO-2000 magnetic-type mass spectrometric calorimeter (ARCO System, Kashiwa, Japan) connected to the treadmill chamber (MB-2000, ARCO System). The RER was calculated as the VCO2/VO2 ratio and the substrate utilization rates were calculated using Frayn’s formula[51]: rate of glucose oxidation = 4.585VCO2 − 3.226VO2; rate of fat oxidation = 1.695VO2 − 1.701VCO2. The exercise endurance capacity under treadmill running was determined by measuring the time from the start to the time until the mice ceased to run because of exhaustion, which was defined as remaining on the shocker plate for more than 10 sec. Immediately after the exercise, the blood glucose and lactate levels were measured using Glutest Every and Lactate Pro2 (ARKRAY, Kyoto, Japan), respectively, in blood samples collected from the tail vein.

SMILES: COc1ccc2c(C)c(C(=O)O)ccc2c1C1C2=C(CC(C)(C)CC2=O)OC2=C1C(=O)CC(C)(C)C2 [DS20060511]
- O2 Consumption (VO2) (2 min): 108.3 ml/min/kg and 99.5 ml/min/kg and 86.9 ml/min/kg and 90.3 ml/min/kg (2×) and 96.4 ml/min/kg and 122.1 ml/min/kg
- Respiratory quotient (2 min): 0.76 (2×) and 0.78 and 0.75 and 0.82 (2×) and 0.79
- CO2 Production (VCO2) (3 min): 92.0 mL/min/kg and 71.1 mL/min/kg and 77.7 mL/min/kg and 83.7 mL/min/kg and 70.1 mL/min/kg and 74.8 mL/min/kg and 73.0 mL/min/kg
- O2 Consumption (VO2) (3 min): 103.2 mL/min/kg and 101.7 mL/min/kg and 88.1 mL/min/kg and 95.2 mL/min/kg and 94.7 mL/min/kg and 120.2 mL/min/kg and 89.5 mL/min/kg
- Respiratory quotient (3 min): 0.77 (2×) and 0.79 (2×) and 0.75 and 0.82 and 0.80
- CO2 Production (VCO2) (4 min): 90.3 mL/min/kg and 73.1 mL/min/kg and 78.3 mL/min/kg and 89.7 mL/min/kg and 70.1 mL/min/kg and 72.9 mL/min/kg and 72.1 mL/min/kg
- O2 Consumption (VO2) (4 min): 103.7 ml/min/kg and 110.0 ml/min/kg and 106.3 ml/min/kg and 93.1 ml/min/kg (2×) and 117.2 ml/min/kg and 90.4 ml/min/kg
- Respiratory quotient (4 min): 0.77 (2×) and 0.81 (2×) and 0.75 and 0.66 and 0.78
- CO2 Production (VCO2) (5 min): 91.5 mL/min/kg and 72.5 mL/min/kg and 78.6 mL/min/kg and 85.8 mL/min/kg and 66.5 mL/min/kg and 73.8 mL/min/kg and 71.7 mL/min/kg
- O2 Consumption (VO2) (5 min): 103.7 mL/min/kg and 103.8 mL/min/kg and 83.5 mL/min/kg and 95.6 mL/min/kg and 90.5 mL/min/kg and 116.5 mL/min/kg and 90.3 mL/min/kg
- Respiratory quotient (5 min): 0.78 and 0.80 (2×) and 0.76 and 0.83 and 0.77 and 0.79
- CO2 Production (VCO2) (6 min): 87.9 mL/min/kg and 70.6 mL/min/kg and 76.9 mL/min/kg and 85.9 mL/min/kg and 73.0 mL/min/kg and 71.8 mL/min/kg and 71.2 mL/min/kg
- O2 Consumption (VO2) (6 min): 100.7 mL/min/kg and 102.8 mL/min/kg and 90.9 mL/min/kg and 93.7 mL/min/kg and 92.0 mL/min/kg and 112.2 mL/min/kg and 87.4 mL/min/kg
- Respiratory quotient (6 min): 0.78 and 0.81 and 0.76 and 0.84 and 0.80 and 0.77 (2×)
- CO2 Production (VCO2) (7 min): 93.5 mL/min/kg and 69.9 mL/min/kg and 76.8 mL/min/kg and 86.5 mL/min/kg and 72.9 mL/min/kg and 71.9 mL/min/kg and 70.2 mL/min/kg
- O2 Consumption (VO2) (7 min): 101.1 mL/min/kg and 105.0 mL/min/kg and 90.7 mL/min/kg and 93.7 mL/min/kg and 90.0 mL/min/kg and 120.2 mL/min/kg and 86.5 mL/min/kg
- Respiratory quotient (7 min): 0.78 (2×) and 0.81 and 0.76 and 0.82 and 0.80 and 0.77
- CO2 Production (VCO2) (8 min): 88.9 mL/min/kg and 75.0 mL/min/kg and 78.4 mL/min/kg and 85.8 mL/min/kg and 72.7 mL/min/kg and 72.1 mL/min/kg and 69.7 mL/min/kg
- O2 Consumption (VO2) (8 min): 103.5 mL/min/kg and 107.7 mL/min/kg and 91.4 mL/min/kg and 93.1 mL/min/kg and 101.3 mL/min/kg and 113.1 mL/min/kg and 92.7 mL/min/kg
- Respiratory quotient (8 min): 0.79 and 0.81 and 0.76 and 0.80 (2×) and 0.77 and 0.69
- CO2 Production (VCO2) (9 min): 95.5 mL/min/kg and 73.8 mL/min/kg and 77.9 mL/min/kg and 84.5 mL/min/kg and 74.4 mL/min/kg and 71.2 mL/min/kg and 78.8 mL/min/kg
- O2 Consumption (VO2) (9 min): 100.3 mL/min/kg and 103.6 mL/min/kg and 93.8 mL/min/kg and 94.2 mL/min/kg and 95.0 mL/min/kg and 118.5 mL/min/kg and 89.8 mL/min/kg
- Respiratory quotient (9 min): 0.81 and 0.82 (2×) and 0.78 and 0.79 and 0.76 and 0.83
- CO2 Production (VCO2) (10 min): 92.6 ml/min/kg and 70.7 ml/min/kg and 80.1 ml/min/kg and 84.2 ml/min/kg (2×) and 72.0 ml/min/kg and 74.9 ml/min/kg
- O2 Consumption (VO2) (10 min): 104.6 mL/min/kg and 102.1 mL/min/kg and 90.2 mL/min/kg and 95.3 mL/min/kg and 98.2 mL/min/kg and 113.5 mL/min/kg and 87.0 mL/min/kg
- Respiratory quotient (10 min): 0.82 (2×) and 0.81 and 0.77 and 0.80 and 0.79 and 0.86
- CO2 Production (VCO2) (11 min): 96.0 ml/min/kg and 73.8 ml/min/kg and 80.9 ml/min/kg and 84.3 ml/min/kg and 71.1 ml/min/kg (2×) and 86.5 ml/min/kg
- O2 Consumption (VO2) (11 min): 106.8 mL/min/kg and 102.9 mL/min/kg and 84.9 mL/min/kg and 92.0 mL/min/kg and 101.1 mL/min/kg and 115.1 mL/min/kg and 89.8 mL/min/kg
- Respiratory quotient (11 min): 0.83 and 0.82 (2×) and 0.76 and 0.84 and 0.77 and 0.85
- CO2 Production (VCO2) (12 min): 97.3 mL/min/kg and 74.3 mL/min/kg and 80.0 mL/min/kg and 93.2 mL/min/kg and 68.6 mL/min/kg and 70.0 mL/min/kg and 89.3 mL/min/kg
- O2 Consumption (VO2) (12 min): 103.8 mL/min/kg and 112.5 mL/min/kg and 85.8 mL/min/kg and 91.1 mL/min/kg and 105.1 mL/min/kg and 120.4 mL/min/kg and 90.9 mL/min/kg
- Respiratory quotient (12 min): 0.81 and 0.82 and 0.77 (2×) and 0.83 and 0.80 and 0.85
- CO2 Production (VCO2) (13 min): 101.9 mL/min/kg and 82.3 mL/min/kg and 78.0 mL/min/kg and 86.9 mL/min/kg and 68.9 mL/min/kg and 69.6 mL/min/kg and 93.3 mL/min/kg
- O2 Consumption (VO2) (13 min): 102.8 mL/min/kg and 102.5 mL/min/kg and 86.7 mL/min/kg and 90.5 mL/min/kg and 109.1 mL/min/kg and 127.7 mL/min/kg and 94.9 mL/min/kg
- Respiratory quotient (13 min): 0.80 and 0.87 and 0.76 and 0.85 and 0.79 and 0.77 and 0.86
- CO2 Production (VCO2) (14 min): 100.6 mL/min/kg and 80.5 mL/min/kg and 79.5 mL/min/kg and 84.1 mL/min/kg and 69.5 mL/min/kg and 69.8 mL/min/kg and 95.1 mL/min/kg
- O2 Consumption (VO2) (14 min): 102.1 mL/min/kg and 101.4 mL/min/kg and 88.4 mL/min/kg and 91.3 mL/min/kg and 109.8 mL/min/kg and 125.1 mL/min/kg and 95.0 mL/min/kg
- Respiratory quotient (14 min): 0.80 and 0.85 and 0.78 and 0.83 and 0.79 and 0.76 and 0.87
- CO2 Production (VCO2) (15 min): 92.4 mL/min/kg and 82.1 mL/min/kg and 81.9 mL/min/kg and 83.7 mL/min/kg and 69.2 mL/min/kg and 69.5 mL/min/kg and 105.4 mL/min/kg
- O2 Consumption (VO2) (15 min): 105.0 mL/min/kg and 100.1 mL/min/kg and 87.5 mL/min/kg and 93.8 mL/min/kg and 120.2 mL/min/kg and 115.1 mL/min/kg and 96.2 mL/min/kg
- Respiratory quotient (15 min): 0.80 and 0.85 and 0.78 and 0.84 and 0.79 and 0.74 and 0.88
- CO2 Production (VCO2) (16 min): 98.8 mL/min/kg and 82.5 mL/min/kg
- O2 Consumption (VO2) (16 min): 103.6 mL/min/kg and 108.6 mL/min/kg
- Respiratory quotient (16 min): 0.79 and 0.85
- Blood glucose (exercise tolerance test, individual mice): 124 mg/dL and 146 mg/dL and 95 mg/dL and 96 mg/dL and 149 mg/dL and 133 mg/dL and 119 mg/dL
